According to patent US20080139458A1, “Methods of Treatment For Injured or Diseased Joints” (priority 2004, published 2008):

Columns and labels:
[1] = tested on: purified human lubricin; assay: In vitro friction assay of protease-treated purified human lubricin; type: biochemical; settings: enzymes 0.5 U/mL, Lubricin = no enzyme, latex:glass bearing
Procedure: (§1) Human lubricin was purified from pooled SF aspirates of patients undergoing total knee replacement as described previously (Jay et al., Gluconj. J. 18:807-815, 2001). BSF was aspirated percutaneously from the lateral aspect of radiocarpal joints of freshly slaughtered cattle with sterile 18 gauge needles after cleansing the skin with alcohol swabs. The cattle were 1 year old and of both sexes (PelFreeze Corp., Little Rock, Ark.). The BSF was centrifuged at 20,000 g at 4° C. to remove cell debris and the BSF was stored at −20° C. Aliquots of purified human lubricin (1 mL, 250 μg/1 mL), and BSF (1 mL) were subjected to protease treatments with CB, NE, α-chymotrypsin, or trypsin. These enzymes were utilized as follows: 1) 0.5 U/mL of CB (Sigma-Aldrich, Saint Louis, Mo., one unit liberates 1 nanomole of 7-amino-4-methylcoumarin from Z-Arg-Arg 7-amido-4-methylcoumarin per min at pH 6.0 at 40° C.) reconstituted in 0.25 M Na acetate buffer, pH 5.5; 2) 0.5 U/mL NE (Sigma-Aldrich, one unit is defined as the release of 1 mole of p-nitrophenol per sec at 37° C.) reconstituted in 100 mM Tris-HCl, 100 mM CaCl2, pH 8.8; 3) 0.5 U/mL of TPCK-treated trypsin (Sigma-Aldrich, one unit causes a change in A253 of 0.001 per min at pH 7.6 at 25° C. using BAEE as a substrate) reconstituted in 50 mM Tris HCl, 20 mM CaCl2, pH 8.0; and 4) 0.5 U/mL of α-chymotrypsin (Sigma-Aldrich, one unit hydrolyzes 1.0 μmole of BTEE per min at pH 7.8 at 25° C.) reconstituted in 80 mM Tris-HCl, 100 mM CaCl2, pH 7.8.
(§2) Aliquots of digested human lubricin and BSF (200 μL) were removed after 2, 4, 6, 12, and 24 hours and the reaction was stopped by adding E-64 (L-trans-epoxysuccinyl-leucyl-amido-(4-guanidino)-butane, Sigma-Aldrich) to a final concentration of 100 μM (CB) or phenylmethanesulfonyl fluoride (PMSF, Sigma-Aldrich) to a final concentration of 1 mM (NE).
(§3) The boundary lubricating abilities of protease-treated human lubricin and BSF were measured using a friction apparatus as reported by Davis et al., J. Biomech. Eng. 101:185-192, 1979. Lubricant (200 μL) was applied between a bearing of latex and a ring of polished glass with a contact area of 1.59 cm^2. The latex was oscillated, under a pressure of 0.35×10^6 N/m^2, against the polished glass with an entraining velocity of 0.37 mm/sec. The bearing system was axially loaded within a gimbals system free to rotate around two perpendicular horizontal axes. The friction apparatus recorded displacements of the gimbals system around the vertical loading axis through a linear displacement voltage transducer, where the output was directly proportional to the frictional torque (F). A bearing load of 70 newtons (N) was related to the coefficient of friction (μ) via Amonton's law, F=μN.
(§4) The μ of the lubricant was recorded at room temperature and was preceded by a baseline measurement of μ with normal saline (NS). Lubrication was manifested by a reduction in μ by the lubricant relative to that of NS. Negative Δμ (−Δμ) values indicate lubrication whereas positive Δμ (+Δμ) indicate friction. Addition of 200 μL of lubricant was followed by bringing the bearing surfaces close enough so that the solution wet both surfaces. After 5 min for equilibration, the latex-coated bearing was brought to rest on the glass as it was oscillating. Voltage measurements were recorded at 1, 3, and 5 min. After 5 min, the surfaces were separated for 2 min and then brought back together for three additional 5 min session. The 3 and 5 min μ values of the last two 5 min session were recorded and averaged, and data were later combined with another duplicate experiment providing 8 distinct measurements of μ.

[2] = tested on: bovine synovial fluid (BSF); assay: In vitro friction assay of protease-treated bovine synovial fluid; type: biochemical; settings: enzymes 0.5 U/mL, BSF = no enzyme, latex:glass bearing
Procedure: as §1, §2, §3, §4

[3] = tested on: excised murine joints; assay: Ex vivo friction coefficient of excised murine joints after intra-articular protease (modified Stanton pendulum); parameters: species or system murine (Svev129 mice); settings: for Friction coefficient μ ± S.D.: n = 4; for average increase in μ: after vs before intra-articular injection of 0.05 U, 2 hours at room temperature
Procedure: Murine joint friction measurements were performed ex vivo in a modified Stanton pendulum configuration (Chamely, New Scientist 6:60, 1959) illustrated in FIG. 2. Excised murine joints, from 8 week old Svev129 mice, weighing approximately 20 grams (Taconic, Germantown, N.Y.), were stripped of supporting connective tissue and musculature, while the synovium was left undisturbed. The femur and tibia were severed mid-length and covered with connecting plexiglass tubing. The center of the joint served as the axis of rotation of a 1 Hz pendulum. The joints were loaded with 20 grams and allowed to oscillate. The pendulum was set in motion at an angle of 30° off the perpendicular axis. The pendulum motion was videotaped and post-hoc analysis was performed to establish baseline μ. The deceleration of the pendulum, a=dv/dt, was used to calculate μ. Velocity (v) was calculated from the equation: v=(2 gh)^1/2 where h is the height from where the pendulum reached apogee to the point of maximum velocity at a=0. The μ of murine joint was calculated to be equal a/g. Presently, this calculation neglects aerodynamic drag and assumes g equals 9.81 m/s^2. A 5 μL protease solution containing 0.05 U of CB, NE, α-chymotrypsin, or trypsin was delivered intra-articularly. The limbs were treated at room temperature for 2 hours and the limbs were subsequently allowed to oscillate to estimate μ following treatment with the protease.

[4] = tested on: purified human lubricin; assay: Western blot of protease-treated purified human lubricin (PNA-peroxidase and pAb J108); type: biochemical
Procedure: as §1, with “7.8. […]” for “7.8.”
Probing was performed using pAb J108, which recognizes an epitope; […], encoded by exon 3 within the amino-terminus of human lubricin/SZP and present in all alternatively spliced isoforms (Jay et al., J. Orthop. Res. 19:677-687, 2001). […] Immunopositive bands were detected in a darkroom on BioMax film (Kodak, Rochester, N.Y.). […]

[5] = After intra-articular injection of 5 μl containing 0.05 U, 2 hour treatment at room temperature
[6] = Before intra-articular injection (baseline)

## Neutrophil Elastase: protease (Sigma-Aldrich) used to treat lubricin, BSF and murine joints
[1]; 0 hrs
  Change in coefficient of friction Δμ ± S.D.: −0.068 ± 0.005
[1]; 2 hrs
  Change in coefficient of friction Δμ ± S.D.: −0.038 ± 0.005
[1]; 4 hrs
  Change in coefficient of friction Δμ ± S.D.: −0.019 ± 0.004
[1]; 6 hrs
  Change in coefficient of friction Δμ ± S.D.: 0.004 ± 0.001
[1]; 12 hrs
  Change in coefficient of friction Δμ ± S.D.: 0.015 ± 0.003
[1]; 24 hrs
  Change in coefficient of friction Δμ ± S.D.: 0.054 ± 0.006
[2]; 0 hrs
  Change in coefficient of friction Δμ ± S.D.: −0.061 ± 0.005
[2]; 2 hrs
  Change in coefficient of friction Δμ ± S.D.: −0.039 ± 0.001
[2]; 4 hrs
  Change in coefficient of friction Δμ ± S.D.: 0.007 ± 0.001
[2]; 6 hrs
  Change in coefficient of friction Δμ ± S.D.: 0.009 ± 0.001
[2]; 12 hrs
  Change in coefficient of friction Δμ ± S.D.: 0.010 ± 0.001
[2]; 24 hrs
  Change in coefficient of friction Δμ ± S.D.: 0.013 ± 0.002
[3]; [5]
  Friction coefficient μ ± S.D.: 0.0028 ± 0.0008
[3]; [6]
  Friction coefficient μ ± S.D.: 0.0022 ± 0.0005
[3]
  average increase in μ: 27.3%
[4]; 0.5 U/mL, 2, 4, 6, 12, and 24 hours post-treatment
  Degradation of lubricin (band intensities): time-dependent degradation of lubricin
[4]; following NE treatment for 2 hours at 37° C.
  pAb J108 immunoreactive bands: no pAb J108 immunoreactive bands were detected

B1: Trypsin: TPCK-treated trypsin (Sigma-Aldrich) used to treat lubricin, BSF and murine joints (protein, UniProt P00760 24-246, looked up)
Serine protease 1: IVGGYTCGANTVPYQVSLNSGYHFCGGSLINSQWVVSAAHCYKSGIQVRLGEDNINVVEGNEQFISASKSIVHPSYNSNTLNNDIMLIKLKSAASLNSRVASISLPTSCASAGTQCLISGWGNTKSSGTSYPDVLKCLKAPILSDSSCKSAYPGQITSNMFCAGYLEGGKDSCQGDSGGPVVCSGKLQGIVSWGSGCAQKNKPGVYTKVCNYVSWIKQTIASN
modifications: TPCK-treated
notes: TPCK-treated trypsin (Sigma-Aldrich) used to treat lubricin, BSF and murine joints
[1]; 0 hrs
  Change in coefficient of friction Δμ ± S.D.: −0.068 ± 0.005
[1]; 2 hrs
  Change in coefficient of friction Δμ ± S.D.: 0.025 ± 0.006
[1]; 4 hrs
  Change in coefficient of friction Δμ ± S.D.: 0.032 ± 0.005
[1]; 6 hrs
  Change in coefficient of friction Δμ ± S.D.: 0.038 ± 0.001
[1]; 12 hrs
  Change in coefficient of friction Δμ ± S.D.: 0.046 ± 0.005
[1]; 24 hrs
  Change in coefficient of friction Δμ ± S.D.: 0.049 ± 0.005
[2]; 0 hrs
  Change in coefficient of friction Δμ ± S.D.: −0.061 ± 0.005
[2]; 2 hrs
  Change in coefficient of friction Δμ ± S.D.: −0.031 ± 0.005
[2]; 4 hrs
  Change in coefficient of friction Δμ ± S.D.: −0.015 ± 0.002
[2]; 6 hrs
  Change in coefficient of friction Δμ ± S.D.: 0.005 ± 0.001
[2]; 12 hrs
  Change in coefficient of friction Δμ ± S.D.: 0.009 ± 0.003
[2]; 24 hrs
  Change in coefficient of friction Δμ ± S.D.: 0.012 ± 0.004
[3]; [5]
  Friction coefficient μ ± S.D.: 0.0034 ± 0.0003
[3]; [6]
  Friction coefficient μ ± S.D.: 0.0018 ± 0.0001
[3]
  average increase in μ: 88.9%
[4]; after 2 hours of treatment (data not shown)
  PNA and J108 reactivity of lubricin: complete loss of PNA and J108 reactivity
